Measured values published in ChEMBL document CHEMBL3885861, “Open TG-GATES”.

Organism: Rattus norvegicus
Assay: Open TG-GATES - Regimen: Single
Format: toxicity, organism-based, Sprague-Dawley
Parameters: regimen Single, gender Male, age 6 weeks
Settings: in vivo, po, 20 mg/kg, route gavage, dose level Low; for APTT / Bas / Eos / Fbg / Hb / Ht / Lym / MCH / MCHC / MCV / Mono / Neu / PT / Plat / RBC / Ret / WBC: tissue Blood; for KIDNEY_TOTAL: tissue Kidney; for LIVER: tissue Liver; for A/G / ALP / ALT / AST / BUN / CRE / Ca / Cl / DBIL / GLC / IP / K / LDH / Na / PL / RALB / TBIL / TC / TG / TP / gamma-GTP: tissue Plasma

Work on `CN(CCOc1ccc(CC2SC(=O)NC2=O)cc1)c1ccccn1.O=C(O)/C=C\C(=O)O` (centres undefined) [ROSIGLITAZONE MALEATE] yielded a TERMINAL_BW (3 h) of 211.2 g, an APTT (3 h) of 16 s and a Bas (3 h) of 0%. For the same molecule, the Eos (3 h) was 0.6%, the Fbg (3 h) was 208.6 mg/dL and the Hb (3 h) was 13.1 g/dL. The Ht (3 h) was 39.8%, the Lym (3 h) was 75.6% and the MCH (3 h) was 21.5 pg. The MCHC (3 h) was 32.9%, the MCV (3 h) was 65.3 fL and the Mono (3 h) was 9.2%. It also gave a Neu (3 h) of 14.2%, a PT (3 h) of 12.2 s and a Plat (3 h) of 111.6 x10_4/uL. The RBC (3 h) was 609 x10_4/ul, the Ret (3 h) was 8.8% and the WBC (3 h) was 102 x10_2/uL. The KIDNEY_TOTAL (3 h) was 0.8 g, the LIVER (3 h) was 10.3 g and the A/G (3 h) was 2.1. The ALP (3 h) was 1342 IU/L, the ALT (3 h) was 38.8 IU/L and the AST (3 h) was 70.4 IU/L. For the same molecule, the BUN (3 h) was 13.2 mg/dL, the CRE (3 h) was 0.4 mg/dL and the Ca (3 h) was 11.2 mg/dL. For the same molecule, the Cl (3 h) was 103.2 meq/L, the DBIL (3 h) was 0.016 mg/dL and the GLC (3 h) was 179.2 mg/dL. The IP (3 h) was 8.4 mg/dL, the K (3 h) was 4.3 meq/L and the LDH (3 h) was 104 IU/L. It also gave a Na (3 h) of 139.6 meq/L, a PL (3 h) of 151.2 mg/dL and an RALB (3 h) of 3.6 g/dL. For the same molecule, the TBIL (3 h) was 0.052 mg/dL, the TC (3 h) was 84.4 mg/dL and the TG (3 h) was 113.4 mg/dL. The TP (3 h) was 5.4 g/dL, the gamma-GTP (3 h) was 0.6 IU/L and the TERMINAL_BW (6 h) was 199.3 g. It also gave an APTT (6 h) of 16.4 s, a Bas (6 h) of 0% and an Eos (6 h) of 0.8%. It also gave a Fbg (6 h) of 208.8 mg/dL, a Hb (6 h) of 13.1 g/dL and a Ht (6 h) of 39.8%. It also gave a Lym (6 h) of 78%, an MCH (6 h) of 21.3 pg and an MCHC (6 h) of 32.8%. For the same molecule, the MCV (6 h) was 64.9 fL, the Mono (6 h) was 6.4% and the Neu (6 h) was 15.2%. The PT (6 h) was 12.1 s, the Plat (6 h) was 118.2 x10_4/uL and the RBC (6 h) was 614.6 x10_4/ul. It also gave a Ret (6 h) of 8.5%, a WBC (6 h) of 114.2 x10_2/uL and a KIDNEY_TOTAL (6 h) of 0.7 g. It also gave an LIVER (6 h) of 8.7 g, an A/G (6 h) of 2.5 and an ALP (6 h) of 1335.2 IU/L. The ALT (6 h) was 37 IU/L, the AST (6 h) was 73 IU/L and the BUN (6 h) was 9.2 mg/dL. For the same molecule, the CRE (6 h) was 0.4 mg/dL, the Ca (6 h) was 11.1 mg/dL and the Cl (6 h) was 103.6 meq/L. For the same molecule, the DBIL (6 h) was 0.014 mg/dL, the GLC (6 h) was 184.6 mg/dL and the IP (6 h) was 9.6 mg/dL. For the same molecule, the K (6 h) was 4.3 meq/L, the LDH (6 h) was 72.8 IU/L and the Na (6 h) was 138.2 meq/L. The PL (6 h) was 135.2 mg/dL, the RALB (6 h) was 3.7 g/dL and the TBIL (6 h) was 0.048 mg/dL. For the same molecule, the TC (6 h) was 82.4 mg/dL, the TG (6 h) was 73.8 mg/dL and the TP (6 h) was 5.2 g/dL. The gamma-GTP (6 h) was 0.8 IU/L, the TERMINAL_BW (9 h) was 198.4 g and the APTT (9 h) was 16.5 s. For the same molecule, the Bas (9 h) was 0%, the Eos (9 h) was 1% and the Fbg (9 h) was 219 mg/dL. For the same molecule, the Hb (9 h) was 12.7 g/dL, the Ht (9 h) was 38.2% and the Lym (9 h) was 73%. For the same molecule, the MCH (9 h) was 21.7 pg, the MCHC (9 h) was 33.3% and the MCV (9 h) was 65.1 fL. The Mono (9 h) was 6%, the Neu (9 h) was 20.4% and the PT (9 h) was 12.2 s. It also gave a Plat (9 h) of 118 x10_4/uL, an RBC (9 h) of 586.6 x10_4/ul and a Ret (9 h) of 9%. For the same molecule, the WBC (9 h) was 90.8 x10_2/uL, the KIDNEY_TOTAL (9 h) was 0.7 g and the LIVER (9 h) was 8.5 g. The A/G (9 h) was 2.4, the ALP (9 h) was 1181.6 IU/L and the ALT (9 h) was 35.2 IU/L. It also gave an AST (9 h) of 64.4 IU/L, a BUN (9 h) of 12.2 mg/dL and a CRE (9 h) of 0.3 mg/dL. The Ca (9 h) was 11 mg/dL, the Cl (9 h) was 104.6 meq/L and the DBIL (9 h) was 0.01 mg/dL. For the same molecule, the GLC (9 h) was 192.4 mg/dL, the IP (9 h) was 10.3 mg/dL and the K (9 h) was 4.2 meq/L. The LDH (9 h) was 80.6 IU/L, the Na (9 h) was 140 meq/L and the PL (9 h) was 130.6 mg/dL. The RALB (9 h) was 3.8 g/dL, the TBIL (9 h) was 0.044 mg/dL and the TC (9 h) was 78.4 mg/dL. The TG (9 h) was 57.6 mg/dL, the TP (9 h) was 5.3 g/dL and the gamma-GTP (9 h) was 0.8 IU/L. It also gave a TERMINAL_BW (24 h) of 217.5 g, an APTT (24 h) of 15.7 s and a Bas (24 h) of 0%. It also gave an Eos (24 h) of 1%, a Fbg (24 h) of 232 mg/dL and a Hb (24 h) of 12.8 g/dL. For the same molecule, the Ht (24 h) was 39%, the Lym (24 h) was 74.2% and the MCH (24 h) was 21.3 pg. It also gave an MCHC (24 h) of 32.9%, an MCV (24 h) of 64.8 fL and a Mono (24 h) of 8%. It also gave a Neu (24 h) of 17%, a PT (24 h) of 11.4 s and a Plat (24 h) of 119.2 x10_4/uL. The RBC (24 h) was 602.6 x10_4/ul, the Ret (24 h) was 7.1% and the WBC (24 h) was 95 x10_2/uL. The KIDNEY_TOTAL (24 h) was 0.7 g, the LIVER (24 h) was 11.3 g and the A/G (24 h) was 2.4. It also gave an ALP (24 h) of 1603.4 IU/L, an ALT (24 h) of 34.2 IU/L and an AST (24 h) of 66.2 IU/L. It also gave a BUN (24 h) of 16 mg/dL, a CRE (24 h) of 0.4 mg/dL and a Ca (24 h) of 11.3 mg/dL. For the same molecule, the Cl (24 h) was 104.2 meq/L, the DBIL (24 h) was 0.014 mg/dL and the GLC (24 h) was 190.2 mg/dL. The IP (24 h) was 7.7 mg/dL, the K (24 h) was 4.3 meq/L and the LDH (24 h) was 102 IU/L. It also gave a Na (24 h) of 141 meq/L, a PL (24 h) of 153.4 mg/dL and an RALB (24 h) of 3.9 g/dL. The TBIL (24 h) was 0.034 mg/dL, the TC (24 h) was 87.4 mg/dL and the TG (24 h) was 128.2 mg/dL. The TP (24 h) was 5.5 g/dL and the gamma-GTP (24 h) was 1 IU/L.
